Measured values as given in patent US20090137664A1, “SAURURUS CERNUUS COMPOUNDS THAT INHIBIT CELLULAR RESPONSES TO HYPOXIA” (priority 2003, published 2009).

Assays:
[1] = tested on: SW-620; assay: NCI in vitro cell line screen (SRB), Colon Cancer SW-620; assay type: cell-based
Experimental: (§1) For exemplary purposes, an embodiment of the present invention was tested for activity with respect to certain cancer cell lines. The following Tables show results from in vitro 60-cell line antitumor testing from the US National Cancer Institute Developmental Therapeutics Program (NCI-DTP) on compound 2. The testing was in connection with the NCI's In Vitro Cell Line Screening Project (IVCLSP). Detailed information regarding the experiments and their interpretation is available from the NCI.

[2] = target: T1, recombinant VEGF protein standard (Homo sapiens, UniProt P15692); assay: interference with the VEGF ELISA using VEGF standard
T1 construct: purchased R & D Systems
T1 sequence (P15692 27-191 isoform P15692-4): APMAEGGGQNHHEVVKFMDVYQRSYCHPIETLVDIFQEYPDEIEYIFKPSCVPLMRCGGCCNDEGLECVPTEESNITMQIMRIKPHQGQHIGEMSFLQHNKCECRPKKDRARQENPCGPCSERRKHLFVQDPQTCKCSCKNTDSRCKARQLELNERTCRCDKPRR
Experimental: The effects of compounds 1 and 2 on hypoxic induction of secreted VEGF protein are examined in T47D cells. Exponentially grown T47D cells are plated at the density of 30,000 cells/well into 96-well plates. Compound treatment and hypoxic exposure are the same as described. Following incubation, the concentration of secreted VEGF protein in the conditioned media is determined by ELISA (R & D Systems) and the data normalized by the number of viable cells. Results shown in FIG. 4 are averages from a representative experiment performed in quadruplicate, the bars represent standard error. An asterisk (*) indicates the level of significance (p<0.01) relative to the hypoxic control, two asterisks (**) (p<0.0001), and no asterisk indicates no statistical difference (ANOVA and Fisher's PLSD post hoc test).
As discussed earlier, one important HIF-1 target gene is VEGF, a key factor for tumor angiogenesis. Compounds that can inhibit both HIF-1 activation and the production of secreted VEGF protein represent potential efficacious chemotherapeutic agents that inhibit both tumor survival and hypoxia induced angiogenesis. […] Following incubation, the concentration of secreted VEGF protein in the conditioned media is determined by ELISA (R & D Systems) and the data normalized by the number of viable cells. […] The level of significance (p<0.01) is determined by ANOVA and Fisher's PLSD post hoc test. […]

[3] = tested on: SK-MEL-5; assay: NCI in vitro cell line screen (SRB), Melanoma SK-MEL-5; assay type: cell-based
Experimental: as §1

[4] = tested on: RPMI-8226; assay: NCI in vitro cell line screen (SRB), Leukemia RPMI-8226; assay type: cell-based
Experimental: as §1

[5] = tested on: SF-539; assay: NCI in vitro cell line screen (SRB), CNS Cancer SF-539; assay type: cell-based
Experimental: as §1

[6] = tested on: HCT-116; assay: NCI in vitro cell line screen (SRB), Colon Cancer HCT-116; assay type: cell-based
Experimental: as §1

[7] = tested on: M14; assay: NCI in vitro cell line screen (SRB), Melanoma M14; assay type: cell-based
Experimental: as §1

[8] = tested on: HOP-92; assay: NCI in vitro cell line screen (SRB), Non-Small Cell Lung Cancer HOP-92; assay type: cell-based
Experimental: as §1

[9] = Homo sapiens, read-out: LC50 (the source's name)

## COc1ccc([C@@H](O)[C@@H](C)Oc2ccc([C@H]3O[C@H](c4ccc(O[C@H](C)[C@H](O)c5ccc6c(c5)OCO6)c(OC)c4)[C@H](C)[C@H]3C)cc2OC)cc1OC [Compound 2, manassantin B]
[1]
  TGI: >1.00E−4 Molar
[1]; Homo sapiens
  GI50: 6.51 µM
[1]; [9]
  CC50: > 100 µM
[1]; Log10 Concentration −4.0 Molar
  Mean Optical Densities: 0.396
  Percent Growth: 25%
[1]; Log10 Concentration −5.0 Molar
  Mean Optical Densities: 0.544
  Percent Growth: 42%
[1]; Log10 Concentration −6.0 Molar
  Mean Optical Densities: 0.949
  Percent Growth: 87%
[1]; Log10 Concentration −7.0 Molar
  Mean Optical Densities: 1.012
  Percent Growth: 94%
[1]; Log10 Concentration −8.0 Molar
  Mean Optical Densities: 0.955
  Percent Growth: 88%
[2]
  interference with the ELISA assay: neither compound interferes
[3]
  TGI: 1.85E−6 Molar
[3]; Homo sapiens
  GI50: < 0.01 µM
[3]; [9]
  CC50: 9.04 µM
[3]; Log10 Concentration −4.0 Molar
  Mean Optical Densities: 0.097
  Percent Growth: −79%
[3]; Log10 Concentration −5.0 Molar
  Mean Optical Densities: 0.222
  Percent Growth: −53%
[3]; Log10 Concentration −6.0 Molar
  Mean Optical Densities: 0.771
  Percent Growth: 19%
[3]; Log10 Concentration −7.0 Molar
  Mean Optical Densities: 1.053
  Percent Growth: 38%
[3]; Log10 Concentration −8.0 Molar
  Mean Optical Densities: 0.980
  Percent Growth: 33%
[4]
  TGI: 1.45E−5 Molar
[4]; Homo sapiens
  GI50: 0.337 µM
[4]; Log10 Concentration −4.0 Molar
  Mean Optical Densities: 0.213
  Percent Growth: −33%
[4]; Log10 Concentration −5.0 Molar
  Mean Optical Densities: 0.356
  Percent Growth: 6%
[4]; Log10 Concentration −6.0 Molar
  Mean Optical Densities: 0.532
  Percent Growth: 34%
[4]; Log10 Concentration −7.0 Molar
  Mean Optical Densities: 0.737
  Percent Growth: 67%
[4]; Log10 Concentration −8.0 Molar
  Mean Optical Densities: 0.766
  Percent Growth: 72%
[5]
  TGI: >1.00E−4 Molar
[5]; Homo sapiens
  GI50: 6.28 µM
[5]; [9]
  CC50: > 100 µM
[5]; Log10 Concentration −4.0 Molar
  Mean Optical Densities: 0.535
  Percent Growth: 21%
[5]; Log10 Concentration −5.0 Molar
  Mean Optical Densities: 0.629
  Percent Growth: 41%
[5]; Log10 Concentration −6.0 Molar
  Mean Optical Densities: 0.848
  Percent Growth: 87%
[5]; Log10 Concentration −7.0 Molar
  Mean Optical Densities: 0.914
  Percent Growth: 101%
[5]; Log10 Concentration −8.0 Molar
  Mean Optical Densities: 0.880
  Percent Growth: 94%
[6]
  TGI: >1.00E−4 Molar
[6]; Homo sapiens
  GI50: 2.25 µM
[6]; [9]
  CC50: > 100 µM
[6]; Log10 Concentration −4.0 Molar
  Mean Optical Densities: 0.329
  Percent Growth: 15%
[6]; Log10 Concentration −5.0 Molar
  Mean Optical Densities: 0.498
  Percent Growth: 32%
[6]; Log10 Concentration −6.0 Molar
  Mean Optical Densities: 0.770
  Percent Growth: 60%
[6]; Log10 Concentration −7.0 Molar
  Mean Optical Densities: 0.867
  Percent Growth: 70%
[6]; Log10 Concentration −8.0 Molar
  Mean Optical Densities: 0.978
  Percent Growth: 81%
[7]
  TGI: >1.00E−4 Molar
[7]; Homo sapiens
  GI50: 4.19 µM
[7]; [9]
  CC50: > 100 µM
[7]; Log10 Concentration −4.0 Molar
  Mean Optical Densities: 0.439
  Percent Growth: 12%
[7]; Log10 Concentration −5.0 Molar
  Mean Optical Densities: 0.521
  Percent Growth: 30%
[7]; Log10 Concentration −6.0 Molar
  Mean Optical Densities: 0.764
  Percent Growth: 83%
[7]; Log10 Concentration −7.0 Molar
  Mean Optical Densities: 0.843
  Percent Growth: 100%
[7]; Log10 Concentration −8.0 Molar
  Mean Optical Densities: 0.809
  Percent Growth: 93%
[8]
  TGI: 2.45E−5 Molar
[8]; Homo sapiens
  GI50: 1.98 µM
  LC50: > 100 µM
[8]; Log10 Concentration −4.0 Molar
  Mean Optical Densities: 0.490
  Percent Growth: −30%
[8]; Log10 Concentration −5.0 Molar
  Mean Optical Densities: 0.744
  Percent Growth: 19%
[8]; Log10 Concentration −6.0 Molar
  Mean Optical Densities: 0.846
  Percent Growth: 63%
[8]; Log10 Concentration −7.0 Molar
  Mean Optical Densities: 0.947
  Percent Growth: 107%
[8]; Log10 Concentration −8.0 Molar
  Mean Optical Densities: 0.971
  Percent Growth: 117%
